Source: patent US11452717B2, “Small molecule activators of nicotinamide phosphoribosyltransferase (NAMPT) and uses thereof” (Sanford Burnham Prebys Medical Discovery Institute, priority 2017, dated 2022)
pEC50: −log10 of the molar value.

target: NAMPT enzyme (Homo sapiens (Human), UniProt P43490); assay: Enzyme Assay and NMN Detection (NAMPT reaction, fluorescence detection of NMN); format: biochemical; settings: Table B-1; NAMPT activation, NMN formation
Experimental: NAMPT reaction was performed in 50 mM HEPES, pH 7.5, containing 5 mM MgCl2, 0.1% Prionex, 0.005% Tween 20, and 1 mM TCEP at room temperature in Greiner 384-well black polypropylene plates. The concentration of substrates and enzymes in the final assay were as follows: ATP (120 uM), nicotinamide (5 uM), phosphoribosylpyrophosphate (6.25 uM), NAMPT enzyme (16 nM), pyrophosphatase (0.04 U/ml) in the final reaction volume 6 uL. Following 2 h incubation the reaction was stopped by addition 2.5 ul 20% acetophenone in dimethyl sulfoxide (DMSO) and 2.5 ul 2 MKOH. Plates were centrifuges and added with 10.5 ul 88% formic acid. The fluorescence (ex380/em460) was measured following another short incubation and 30 min incubation. The increased concentration of NMN was determined from a calibration curve obtained at the time of experiment.

Sequence of NAMPT enzyme (P43490 whole entry, species assumed): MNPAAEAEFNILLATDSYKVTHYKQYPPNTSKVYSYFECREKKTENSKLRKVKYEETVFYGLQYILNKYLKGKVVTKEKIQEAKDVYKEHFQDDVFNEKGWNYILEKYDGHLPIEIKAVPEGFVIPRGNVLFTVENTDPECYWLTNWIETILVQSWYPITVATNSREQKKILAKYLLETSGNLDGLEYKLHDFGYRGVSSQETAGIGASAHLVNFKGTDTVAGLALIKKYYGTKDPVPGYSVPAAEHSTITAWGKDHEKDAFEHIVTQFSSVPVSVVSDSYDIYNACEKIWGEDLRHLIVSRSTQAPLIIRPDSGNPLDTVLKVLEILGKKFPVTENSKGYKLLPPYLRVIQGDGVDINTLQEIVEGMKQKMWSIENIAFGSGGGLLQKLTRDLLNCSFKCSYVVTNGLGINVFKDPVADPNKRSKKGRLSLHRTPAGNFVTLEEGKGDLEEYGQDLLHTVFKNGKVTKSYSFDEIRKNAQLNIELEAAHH

| SMILES | pEC50 |
| --- | --- |
| O=C(NCc1cn[nH]c1)Nc1ccc(S(=O)(=O)c2ccccc2)cc1 [1-(4-Benzenesulfonyl-phenyl)-3-(1H-pyrazol-4-ylmethyl)-urea] | > 7.00 |
| O=C(NCc1cnco1)Nc1ccc(S(=O)(=O)c2ccccc2)cc1 [1-(4-Benzenesulfonyl-phenyl)-3-oxazol-5-ylmethyl-urea] | > 7.00 |

same assay, conditions: Table B-2; NAMPT activation, NMN formation

| SMILES | pEC50 |
| --- | --- |
| O=C(NCc1ccncc1)Nc1ccc(C(=O)N2Cc3ccccc3C2)cc1 [1-(4-(Isoindoline-2-carbonyl)phenyl)-3-(pyridin-4-ylmethyl)urea] | < 4.70 |
| O=C(NCc1ccncc1)Nc1ccc(C(=O)N2CCOCC2)cc1 [1-(4-(Morpholine-4-carbonyl)phenyl)-3-(pyridin-4-ylmethyl)urea] | 4.70 to 5.30 |
| O=C(NCc1ccncc1)Nc1ccc(C(=O)N2CCCCC2)cc1 [1-(4-(Piperidine-1-carbonyl)phenyl)-3-(pyridin-4-ylmethyl)urea] | 4.70 to 5.30 |
| O=C(NCc1ccncc1)Nc1ccc(S(=O)(=O)c2ccccc2)cc1 [1-(4-Benzenesulfonyl-phenyl)-3-pyridin-4-ylmethyl-urea] | > 7.00 |
| O=C(NCc1ccncc1)Nc1ccc(Cl)cc1 [1-(4-Chlorophenyl)-3-(pyridin-4-ylmethyl)urea] | 4.70 to 5.30 |
| O=C(NCc1ccncc1)Nc1ccc(F)cc1 [1-(4-Fluorophenyl)-3-(pyridin-4-ylmethyl)urea] | < 4.70 |
| COc1ccc(NC(=O)NCc2ccncc2)cc1 [1-(4-Methoxyphenyl)-3-(pyridin-4-ylmethyl)urea] | < 4.70 |
| O=C(NCc1ccncc1)Nc1ccc(S(=O)(=O)Cc2ccccc2)cc1 [1-(4-Phenylmethanesulfonyl-phenyl)-3-pyridin-4-ylmethyl-urea] | 5.30 to 5.70 |
| O=C(NCc1ccncc1)Nc1ccc(NS(=O)(=O)Cc2ccc(Cl)cc2)cc1 [1-(4-chlorophenyl)-N-(4-(3-(pyridin-4-ylmethyl)ureido)phenyl)methanesulfonamide] | > 7.00 |

same assay, conditions: Table B-3; NAMPT activation, NMN formation

| SMILES | pEC50 |
| --- | --- |
| O=C(NCc1ccccn1)Nc1ccc(Cl)cc1 [1-(4-Chlorophenyl)-3-(pyridin-2-ylmethyl)urea] | < 4.70 |
| O=C(NCc1cccnc1)Nc1ccc(Cl)cc1 [1-(4-Chlorophenyl)-3-(pyridin-3-ylmethyl)urea] | < 4.70 |
| O=C(NCc1ccccn1)Nc1ccc(F)cc1 [1-(4-Fluorophenyl)-3-(pyridin-2-ylmethyl)urea] | < 4.70 |
| O=C(NCc1cccnc1)Nc1ccc(F)cc1 [1-(4-Fluorophenyl)-3-(pyridin-3-ylmethyl)urea] | < 4.70 |
| COc1ccc(NC(=O)NCc2ccccn2)cc1 [1-(4-Methoxyphenyl)-3-(pyridin-2-ylmethyl)urea] | < 4.70 |
| COc1ccc(NC(=O)NCc2cccnc2)cc1 [1-(4-Methoxyphenyl)-3-(pyridin-3-ylmethyl)urea] | < 4.70 |

same assay, conditions: Table B-4; NAMPT activation, NMN formation

| SMILES | pEC50 |
| --- | --- |
| O=C(NCc1cn[nH]c1)Nc1ccc(-c2cccc3scnc23)cc1 [1-(4-Benzothiazol-4-yl-phenyl)-3-(1H-pyrazol-4-ylmethyl)-urea] | 5.70 to 7.00 |
| O=C(NCc1cn[nH]c1)Nc1ccc(S(=O)(=O)C2CCCCC2)cc1 [1-(4-Cyclohexanesulfonyl-phenyl)-3-(1H-pyrazol-4-ylmethyl)-urea] | 5.70 to 7.00 |
| Cc1cccc2c1c(-c1ccc(NC(=O)NCc3cn[nH]c3)cc1)nn2C [1-((1H-Pyrazol-4-yl)methyl)-3-(4-(1,4-dimethyl-1H-indazol-3-yl)phenyl)urea] | 5.70 to 7.00 |
| Cc1ccc2c(c1)c(-c1ccc(NC(=O)NCc3cn[nH]c3)cc1)nn2C [1-((1H-Pyrazol-4-yl)methyl)-3-(4-(1,5-dimethyl-1H-indazol-3-yl)phenyl)urea] | 5.70 to 7.00 |
| Cc1cccc2c(-c3ccc(NC(=O)NCc4cn[nH]c4)cc3)nn(C)c12 [1-((1H-Pyrazol-4-yl)methyl)-3-(4-(1,7-dimethyl-1H-indazol-3-yl)phenyl)urea] | 5.30 to 5.70 |
| Cn1nc(-c2ccc(NC(=O)NCc3cn[nH]c3)cc2)c2ccncc21 [1-((1H-Pyrazol-4-yl)methyl)-3-(4-(1-methyl-1H-pyrazolo[3,4-c]pyridin-3-yl)phenyl)urea] | 5.30 to 5.70 |
| O=C(NCc1cn[nH]c1)Nc1ccc(-c2ncc(Cc3ccccc3)s2)cc1 [1-((1H-Pyrazol-4-yl)methyl)-3-(4-(5-benzylthiazol-2-yl)phenyl)urea] | 5.30 to 5.70 |
| Cn1nc(-c2ccc(NC(=O)NCc3cn[nH]c3)cc2)c2cc(Cl)ccc21 [1-((1H-Pyrazol-4-yl)methyl)-3-(4-(5-chloro-1-methyl-1H-indazol-3-yl)phenyl)urea] | 5.70 to 7.00 |
| O=C(NCc1cn[nH]c1)Nc1ccc(-c2ncc(-c3ccccc3)s2)cc1 [1-((1H-Pyrazol-4-yl)methyl)-3-(4-(5-phenylthiazol-2-yl)phenyl)urea] | 4.70 to 5.30 |
| O=C(NCc1cn[nH]c1)Nc1ccc(S(=O)(=O)c2cn[nH]c2)cc1 [1-((1H-Pyrazol-4-yl)methyl)-3-(4-((1H-pyrazol-4-yl)sulfonyl)phenyl)urea] | 5.70 to 7.00 |
| COc1ccc(-c2ccccc2S(=O)(=O)c2ccc(NC(=O)NCc3cn[nH]c3)cc2)cn1 [1-((1H-Pyrazol-4-yl)methyl)-3-(4-((2-(6-methoxypyridin-3-yl)phenyl)sulfonyl)phenyl)urea] | 4.70 to 5.30 |
| O=C(NCc1cn[nH]c1)Nc1ccc(S(=O)(=O)c2ccccc2F)cc1 [1-((1H-Pyrazol-4-yl)methyl)-3-(4-((2-fluorophenyl)sulfonyl)phenyl)urea] | > 7.00 |
| O=C(NCc1cn[nH]c1)Nc1ccc(S(=O)(=O)c2ccccc2-c2ccccc2Cl)cc1 [1-((1H-Pyrazol-4-yl)methyl)-3-(4-((2′-chloro-[1,1′-biphenyl]-2-yl)sulfonyl)phenyl)urea] | 5.70 to 7.00 |

same assay, conditions: Table B-5; NAMPT activation, NMN formation

| SMILES | pEC50 |
| --- | --- |
| O=C(NCc1cnco1)Nc1ccc(S(=O)(=O)c2ccc(Cl)cc2)cc1 [1-(4-((4-Chlorophenyl)sulfonyl)phenyl)-3-(oxazol-5-ylmethyl)urea] | 5.70 to 7.00 |
| O=C(NCc1cnco1)Nc1ccc(S(=O)(=O)c2ccc(F)cc2)cc1 [1-(4-((4-Fluorophenyl)sulfonyl)phenyl)-3-(oxazol-5-ylmethyl)urea] | 5.70 to 7.00 |
| O=C(NCc1cnco1)Nc1ccc(-c2nc3ccccc3s2)cc1 [1-(4-(Benzo[d]thiazol-2-yl)phenyl)-3-(oxazol-5-ylmethyl)urea] | 4.70 to 5.30 |
| O=C(NCc1cnco1)Nc1ccc(Nc2nc3ccccc3s2)cc1 [1-(4-(Benzo[d]thiazol-2-ylamino)phenyl)-3-(oxazol-5-ylmethyl)urea] | 4.70 to 5.30 |
| O=C(NCc1cnco1)Nc1ccc(S(=O)(=O)c2ccccc2-c2ccccc2)cc1 [1-(4-([1,1′-Biphenyl]-2-ylsulfonyl)phenyl)-3-(oxazol-5-ylmethyl)urea] | > 7.00 |
| O=C(NCc1cnco1)Nc1ccc(S(=O)(=O)c2cccc(-c3ccccc3)c2)cc1 [1-(4-([1,1′-Biphenyl]-3-ylsulfonyl)phenyl)-3-(oxazol-5-ylmethyl)urea] | 5.70 to 7.00 |
| O=C(NCc1cnco1)Nc1ccc(-c2cccc3scnc23)cc1 [1-(4-Benzothiazol-4-yl-phenyl)-3-oxazol-5-ylmethyl-urea] | 5.70 to 7.00 |
| O=C(NCc1cnco1)Nc1ccc(NS(=O)(=O)Cc2ccc(Cl)cc2)cc1 [1-(4-Chlorophenyl)-N-(4-(3-(oxazol-5-ylmethyl)ureido)phenyl)methanesulfonamide] | > 7.00 |
| O=C(NCc1cnco1)Nc1ccc(S(=O)(=O)C2CCCCC2)cc1 [1-(4-cyclohexanesulfonyl-phenyl)-3-oxazol-5-ylmethyl-urea] | 5.30 to 5.70 |

same assay, conditions: Table B-6; NAMPT activation, NMN formation

| SMILES | pEC50 |
| --- | --- |
| O=C(NCc1ccncc1)Nc1ccc(S(=O)(=O)c2cccc(F)c2)cc1 [1-(4-((3-Fluorophenyl)sulfonyl)phenyl)-3-(pyridin-4-ylmethyl)urea] | > 7.00 |
| N#Cc1cccc(-c2ccccc2S(=O)(=O)c2ccc(NC(=O)NCc3ccncc3)cc2)c1 [1-(4-((3′-Cyano-[1,1′-biphenyl]-2-yl)sulfonyl)phenyl)-3-(pyridin-4-ylmethyl)urea] | 5.30 to 5.70 |
| O=C(NCc1ccncc1)Nc1ccc(S(=O)(=O)c2ccc(F)cc2)cc1 [1-(4-((4-Fluorophenyl)sulfonyl)phenyl)-3-(pyridin-4-ylmethyl)urea] | 5.70 to 7.00 |
| O=C(NCc1ccncc1)Nc1ccc(Nc2nc(-c3ccccc3)cs2)cc1 [1-(4-((4-Phenylthiazol-2-yl)amino)phenyl)-3-(pyridin-4-ylmethyl)urea] | 5.70 to 7.00 |
| N#Cc1ccc(-c2ccccc2S(=O)(=O)c2ccc(NC(=O)NCc3ccncc3)cc2)cc1 [1-(4-((4′-Cyano-[1,l′-biphenyl]-2-yl)sulfonyl)phenyl)-3-(pyridin-4-ylmethyl)urea] | 4.70 to 5.30 |
| O=C(NCc1ccncc1)Nc1ccc(Nc2ncc(-c3ccccc3)s2)cc1 [1-(4-((5-Phenylthiazol-2-yl)amino)phenyl)-3-(pyridin-4-ylmethyl)urea] | 4.70 to 5.30 |
| O=C(NCc1ccncc1)Nc1ccc(-c2nc3ccccc3s2)cc1 [1-(4-(Benzo[d]thiazol-2-yl)phenyl)-3-(pyridin-4-ylmethyl)urea] | 4.70 to 5.30 |
| O=C(NCc1ccncc1)Nc1ccc(S(=O)(=O)c2ccccn2)cc1 [1-(4-(Pyridin-2-ylsulfonyl)phenyl)-3-(pyridin-4-ylmethyl)urea] | 5.70 to 7.00 |
| O=C(NCc1ccncc1)Nc1ccc(S(=O)(=O)c2ccccc2-c2ccccc2)cc1 [1-(4-([1,1′-Biphenyl]-2-ylsulfonyl)phenyl)-3-(pyridin-4-ylmethyl)urea] | 5.70 to 7.00 |
| O=C(NCc1ccncc1)Nc1ccc(-c2cccc3scnc23)cc1 [1-(4-Benzothiazol-4-yl-phenyl)-3-pyridin-4-ylmethyl-urea] | 5.70 to 7.00 |
| O=C(NCc1ccncc1)Nc1ccc(S(=O)(=O)C2CCCCC2)cc1 [1-(4-Cyclohexanesulfonyl-phenyl)-3-pyridin-4-ylmethyl-urea] | 5.70 to 7.00 |
